Measured values: paper PMC8639922, “KSHV transactivator-derived small peptide traps coactivators to attenuate MYC and inhibits leukemia and lymphoma cell growth” (Communications Biology, 2021)
Several values for one entry are separate records, joined by “and”; a condition that tells them apart may be missing. Equal entries are not always repeated. Square brackets hold non-standard residues; d marks the D form. Peptide text beside a SMILES is read from it. Orn = NCCC[C@H](N)C(=O)O; βAla = NCCC(=O)O

Tested on: KSHV lytic gene expression in TREx-K-Rta BCBL-1 cells
Test: KSHV genome-wide qRT-PCR array
Type: cell-based
Settings: D
Description: Because VGN50 is derived from the KSHV transactivator sequence, we next examined if VGN50 can inhibit KSHV lytic replication by competitively blocking the coactivator binding to K-Rta. To study this, we used the TREx-K-Rta BCBL-1 cell line, in which we can trigger the expression of exogenous Flag-tagged K-Rta in a doxycycline (Dox) inducible manner. TREx-K-Rta BCBL-1 cells were treated with […] VGN50 or mutant peptide, with or without Dox induction. We used approximately one-half of the IC50 concentration of VGN50 to treat the TREx-K-Rta BCBL-1 cells in order to avoid cell toxicity effects that would non-specifically decrease viral gene expression. KSHV gene expression was profiled with a KSHV genome-wide PCR array, using ribosomal rRNA for normalization and as an internal control. Fold activation relative to the uninduced Mut-P-treated sample (not induced: Dox -) was determined and a heatmap for KSHV lytic gene expression was generated (Fig. 3a). […] Immunoblotting was used to confirm the induction of lytic replication by Dox based on exogenous K-Rta protein (Flag-K-Rta) and the expression of two other KSHV lytic proteins (ORF57 and K-bZIP) along with actin and KSHV LANA protein as controls for equal loading and similar viral copy numbers in samples, respectively (Fig. 3b).
Fig. 3 Effects of VGN50 on KSHV gene transcription and VGN50 binding with SWI/SNF components. a KSHV qRT-PCR array analysis was used to study effects of VGN50 on KSHV gene transcription in a genome-wide manner. Uninduced (−; no doxycycline added) or dox-induced (+; 1 μg/ml) cells were treated with VGN50 or the mutant peptide (Mut-P) at a concentration of 24 μM. Samples were collected at 24 h post-treatment. Expression in uninduced cells was set as 1 for each viral gene and expression shown as fold activation relative to no-Dox samples. Selected cellular genes were also included in the PCR array for comparison. 18S ribosomal RNA was used as an internal control. b KSHV protein expression. Immunoblotting was performed to confirm both endogenous and exogenous K-Rta expression before (not induced) and after induction by Dox treatment (Dox-induced). Latent KSHV protein LANA and actin were used as controls for KSHV copy number (LANA) and loading (actin), respectively. Protein samples were collected 48-h post Dox incubation. c KSHV reactivation by VGN50 incubation. BCBL-1 and BC-1 cell lines were treated with VGN50 (16 μM concentration) and total RNA harvested at 24 h post treatment. KSHV PAN RNA expression was examined by qRT-PCR and relative expression over 18S rRNA is shown. Data are presented as mean ± SD (n = 3). d Purification of recombinant SWI/SNF components. SDS-PAGE analysis of five SWI/SNF components individually prepared from baculovirus-infected Sf9 cells. e A schematic illustration of ELISA assay to evaluate VGN50 and SWI/SNF interaction. f Analysis of VGN50 binding to SWI/SNF components by ELISA. Increasing concentrations of biotin-conjugated VGN50 or Mut-P were incubated in duplicate in an ELISA plate coated with each SWI/SNF component. Peptide binding measured as OD values at 450 nm are shown. Mean OD values were compared between the VGN50 and Mut-P in each concentration using unpaired t-test. **p < 0.01, *p < 0.05, NS no significance. Data are presented as mean ± SD with duplicated samples and repeated three times with different purified protein preps.

[1] = values are 2^-ddCT (fold vs MT ND)
[2] = values are 2^-ddCT (fold vs MT ND), listed as MT

SMILES: CC(C)C[C@H](NC(=O)CCNC(=O)[C@H](CCCNC(=N)N)NC(=O)[C@H](CCCNC(=N)N)NC(=O)[C@H](CCCNC(=N)N)NC(=O)[C@H](CCCN)NC(=O)[C@H](CCCNC(=N)N)NC(=O)[C@H](CCCNC(=N)N)NC(=O)[C@H](CCCCN)NC(=O)[C@H](CCCCN)NC(=O)[C@H](N)CCCNC(=N)N)C(=O)N[C@@H](CO)C(=O)N[C@@H](CO)C(=O)N[C@@H](C)C(=O)N[C@@H](C)C(=O)N[C@@H](C)C(=O)NCC(=O)N[C@@H](CC(C)C)C(=O)N[C@@H](Cc1ccc(O)cc1)C(=O)N[C@@H](CCC(N)=O)C(=O)N[C@@H](CC(C)C)C(=O)N[C@@H](CC(=O)O)C(=O)N[C@H](C(=O)O)[C@@H](C)O [Mt-P] (H-[dR]KKRR[Orn]RRR[βAla]LSSAAAGLYQLDT-OH; N-terminus and C-terminus assumed)
- IL- 6 ddCT (vs 18s and MT ND): -2.234
- IL- 10 ddCT (vs 18s and MT ND): 0.213
- ORF21 fold vs MT ND (headed ddCT): 10.438
- ORF 50 k-kta fold vs MT ND (headed ddCT): 158.652
- k 2 fold vs MT ND (headed ddCT): 197.507
- K 9 fold vs MT ND (headed ddCT) (listed as MT): 11.999 and 11.9991
- K 10 fold vs MT ND (headed ddCT) (listed as MT): 11.665 and 11.6651
- ORF2 fold vs MT ND (headed ddCT) (listed as MT): 35.093 and 35.0927
- ORF4 fold vs MT ND (headed ddCT) (listed as MT): 46.543 and 46.5425
- ORF6 fold vs MT ND (headed ddCT) (listed as MT): 13.632 and 13.6318
- ORF7 fold vs MT ND (headed ddCT) (listed as MT): 12.162 and 12.1623
- ORF8 fold vs MT ND (headed ddCT) (listed as MT): 10.223 and 10.2233
- ORF9 fold vs MT ND (headed ddCT) (listed as MT): 6.076
- ORF11 fold vs MT ND (headed ddCT) (listed as MT): 18.177 and 18.1766
- ORF16 fold vs MT ND (headed ddCT) (listed as MT): 8.699 and 8.6991
- ORF17 fold vs MT ND (headed ddCT) (listed as MT): 6.815
- ORF18 fold vs MT ND (headed ddCT) (listed as MT): 4.417
- ORF19 fold vs MT ND (headed ddCT) (listed as MT): 8.897
- ORF 20 fold vs MT ND (headed ddCT) (listed as MT): 5.481
- ORF22.1 fold vs MT ND (headed ddCT) (listed as MT): 6.976
- ORF23 fold vs MT ND (headed ddCT) (listed as MT): 4.718
- ORF24 fold vs MT ND (headed ddCT) (listed as MT): 6.384
- ORF 25 fold vs MT ND (headed ddCT) (listed as MT): 4.629
- ORF26 fold vs MT ND (headed ddCT) (listed as MT): 6.591
- ORF27 fold vs MT ND (headed ddCT) (listed as MT): 19.313 and 19.3133
- ORF28 fold vs MT ND (headed ddCT) (listed as MT): 5.046
- ORF29 fold vs MT ND (headed ddCT) (listed as MT): 22.418 and 22.4181
- ORF30 fold vs MT ND (headed ddCT) (listed as MT): 5.617
- ORF31 fold vs MT ND (headed ddCT) (listed as MT): 9.188
- ORF32 fold vs MT ND (headed ddCT) (listed as MT): 3.227
- ORF33 fold vs MT ND (headed ddCT) (listed as MT): 10.461 and 10.4609
- ORF34 fold vs MT ND (headed ddCT) (listed as MT): 6.891
- ORF35 fold vs MT ND (headed ddCT) (listed as MT): 7.441
- ORF36 fold vs MT ND (headed ddCT) (listed as MT): 21.557 and 21.5571
- ORF37 fold vs MT ND (headed ddCT) (listed as MT): 14.520 and 14.5196
- ORF38 fold vs MT ND (headed ddCT) (listed as MT): 28.906 and 28.9062
- ORF39 fold vs MT ND (headed ddCT) (listed as MT): 11.635 and 11.6345
- ORF40 fold vs MT ND (headed ddCT) (listed as MT): 4.674
- ORF41 fold vs MT ND (headed ddCT) (listed as MT): 21.065 and 21.0654
- ORF42 fold vs MT ND (headed ddCT) (listed as MT): 3.993
- ORF43 fold vs MT ND (headed ddCT) (listed as MT): 8.726
- ORF44 fold vs MT ND (headed ddCT) (listed as MT): 33.337 and 33.3373
- ORF45 fold vs MT ND (headed ddCT) (listed as MT): 53.618 and 53.6182
- ORF 46 fold vs MT ND (headed ddCT) (listed as MT): 6.457
- ORF 47 fold vs MT ND (headed ddCT) (listed as MT): 62.278 and 62.2783
- ORF48 fold vs MT ND (headed ddCT) (listed as MT): 31.118 and 31.1177
- ORF49 fold vs MT ND (headed ddCT) (listed as MT): 16.390 and 16.3905
- ORF52 fold vs MT ND (headed ddCT) (listed as MT): 27.531 and 27.5312
- ORF53 fold vs MT ND (headed ddCT) (listed as MT): 16.215 and 16.2146
- ORF54 fold vs MT ND (headed ddCT) (listed as MT): 10.079 and 10.0788
- ORF55 fold vs MT ND (headed ddCT) (listed as MT): 10.827 and 10.8272
- ORF56 fold vs MT ND (headed ddCT) (listed as MT): 13.04
- ORF57 fold vs MT ND (headed ddCT) (listed as MT): 22.128 and 22.1283
- ORF70 fold vs MT ND (headed ddCT) (listed as MT): 15.204 and 15.2038
- T1.5 ori RNA fold vs MT ND (headed ddCT) (listed as MT): 26.465 and 26.4646
- k 1 fold vs MT ND (headed ddCT) (listed as MT): 7.768
- k 3 fold vs MT ND (headed ddCT) (listed as MT): 12.567 and 12.5669
- k 4 fold vs MT ND (headed ddCT) (listed as MT): 33.463 and 33.4629
- k 6 -2 fold vs MT ND (headed ddCT) (listed as MT): 13.375 and 13.3749
- k 7 real fold vs MT ND (headed ddCT) (listed as MT): 14.740 and 14.7397
- pan set 2 fold vs MT ND (headed ddCT) (listed as MT): 11.431 and 11.4312
- EGFP ddCT (vs 18s and MT ND), second block [1]: 2.182
- IL- 6 ddCT (vs 18s and MT ND), second block [1]: 4.704
- ORF67 ddCT (vs 18s and MT ND), second block [1]: 1.460
- ORF68 ddCT (vs 18s and MT ND), second block [1]: 3.433
- ORF74 ddCT (vs 18s and MT ND), second block [1]: 1.662
- k 14 ddCT (vs 18s and MT ND), second block [1]: 1.713
- IL- 10 ddCT (vs 18s and MT ND), second block [2]: 0.863 and 0.8629
- K 11 ddCT (vs 18s and MT ND), second block [2]: 85.514 and 85.5135
- K 12 ddCT (vs 18s and MT ND), second block [2]: 1.587
- K 15 ddCT (vs 18s and MT ND), second block [2]: 1.316
- ORF 58 ddCT (vs 18s and MT ND), second block [2]: 7.125
- ORF59 ddCT (vs 18s and MT ND), second block [2]: 3.052
- ORF60 ddCT (vs 18s and MT ND), second block [2]: 1.439
- ORF61 ddCT (vs 18s and MT ND), second block [2]: 2.555
- ORF 62 ddCT (vs 18s and MT ND), second block [2]: 2.303
- ORF63 ddCT (vs 18s and MT ND), second block [2]: 4.399
- ORF64 ddCT (vs 18s and MT ND), second block [2]: 5.462 and 5.4617
- ORF65 ddCT (vs 18s and MT ND), second block [2]: 2.091
- ORF66 ddCT (vs 18s and MT ND), second block [2]: 6.232
- ORF69 ddCT (vs 18s and MT ND), second block [2]: 3.398
- ORF71 ddCT (vs 18s and MT ND), second block [2]: 6.849
- ORF72 ddCT (vs 18s and MT ND), second block [2]: 2.075
- ORF 73 ddCT (vs 18s and MT ND), second block [2]: 1.648
- ORF75 ddCT (vs 18s and MT ND), second block [2]: 1.427
- T0.7 #1 ddCT (vs 18s and MT ND), second block [2]: 5.275
- T0.7 #2 ddCT (vs 18s and MT ND), second block [2]: 2.071
- T1.5 #2 ddCT (vs 18s and MT ND), second block [2]: 13.571 and 13.5709
- VIRF3 ddCT (vs 18s and MT ND), second block [2]: 5.775
